This note sets out measurements from EP2769738B1, “Conjugated TLR7 and/or TLR8 and TLR2 polycationic agonists” (Invivogen, priority 2013, dated 2014).

Several values for one entry are separate records, joined by “and”; a condition that tells them apart may be missing. Equal values may be shown once.

This data set is described as follows: Determination of nanoparticle (lipoplex) size by dynamic light scattering. It is filed as physicochemical. To be noted: ratio 3:24 (w:w); for Conformity (C)/ Non-conformity (NC) / Mean Diameter (nm): complexes with pDNA; for Mean Diameter (nm): dynamic light scattering at 25°C; for Mean Diameter (nm) / PDI: triplicate measurements; for PDI: polydispersity index of complexes with pDNA, 25°C. How it is done: • 1. Preparative HPLC Method: Unless otherwise indicated, the compounds described herein were purified by RP-MPLC ARMEN® Spot Flash Liquid Chromatography (ARMEN Instrument, Saint Ave, France) on a preparative column (SVF D26) packed with 25-40 µm C18 resin (Merck chimie SAS), by applying a linear gradient of 0-10% MeCN in NH4OAc (10 mM) solution (pH = 9) over 60 min at a 15 mL/min flow rate. The purification was monitored at 254 nm. Suitable fractions were pooled and lyophilised. • 2. Proton NMR Spectra: Unless otherwise indicated, all ^1H NMR spectra were run on a Bruker series 300 MHz instrument. Where so characterized, all observed protons are reported as parts-per-million (ppm) downfield from tetramethylsilane (TMS) or other internal reference in the appropriate solvent indicated. NMR spectra were recorded on a Brucker 300 spectrometer. For ^1H (300 MHz) spectra δ values were referenced to CDCI3-d1 (7.26 ppm), DMSO- d6 (2.50 ppm), D2O-d2 (4.79 ppm) or MeOD-d4 (3.31 ppm). The peak patterns are indicated as follows: s: singlet, sl: large singlet, d: doublet, t: triplet, q: quartet, m: multiplet. • 3. Mass Spectra (MS): Analyses were run on an Agilent Model 6130 quadrupole MS. Unless otherwise indicated, all mass spectral data for starting materials, intermediates and/or exemplary compounds are reported as mass/charge (m/z), having an (M+H)^+ molecular ion. The molecular ion reported was obtained by electrospray detection method (commonly referred to as an ESI MS). Compounds having an isotopic atom, such as bromine and the like, are generally reported according to the detected isotopic pattern, as appreciated by those skilled in the art. • 4. Particle size: Particle size was determined using a Malvern Nanosizer (Malvern, Worcestershire, UK) and Malvern ZETASIZER.RTM. (Malvern, Worcestershire, UK). • 5. Naming Convention The compounds disclosed and described herein have been named using the naming convention provided with Chem-Draw Ultra 11.0 software, available in Chem. Office. In some instances, compounds were named with the term "spermine" inserted where appropriate. For example, where the spermine is substituted with Boc, "N1,N5,N10-TriBoc-spermine" is added to the Chem-Draw nomenclature in the appropriate place. Chem-Draw utilizes the ISIS Draw software compound naming convention, as appreciated by those skilled in the art.
For pDNA:TLR7-TLR2 polyamine molecules complexes, a ratio pDNA:TLR7-TLR2 polyamine molecules of 3:24 (w:w) was prepared in serum-free culture medium or in 5% glucose. The TLR7-TLR2 conjugated compound of interest was prediluted in serum-free culture medium or in 5% glucose and incubated for 5 minutes at room temperature, prior to the addition of an endotoxin-free, salt-free preparation of pDNA. In these experiments, the pBsr2pCpGLacZh plasmid was used in the pDNA:TLR7-TLR2 polyamine molecule complexes. The pDNA:TLR7-TLR2 polyamine molecule mixtures were incubated at room temperature for 30 minutes to allow the formation of the complex. The control used in these experiments was the cationic lipid transfection agent LyoVec™ (InvivoGen) prepared in a similar manner.
In order to confirm that TLR7-TLR2 polyamine molecules complex DNA, lipoplex size was determined. The physical characterization of complex was achieved by dynamic light scattering using the analytical equipment for laser diffraction Zetasizer Nano-ZS (Malvern). pDNA:TLR7-TLR2 polyamine molecule complexes were prepared as described above. Subsequently, 50µl of pDNA: TLR7-TLR2 polyamine molecule complexes were placed into a disposable sizing cuvette and measurements were made under conditions defined according to manufacturer's instructions. The measurements were made at 25°C in triplicate and a size distribution report was obtained. […]

In the case of `CCCCCCCCCCCCCCCC(=O)OCC(CSC[C@H](N)C(=O)N[C@@H](CO)C(=O)N[C@@H](CCCCN)C(=O)N[C@@H](CCCCN)C(=O)N[C@@H](CCCCNC(=O)c1ccc(Cn2c(O)nc3c(N)nc(NCCCC)nc32)cc1)C(=O)N[C@@H](CCCCN)C(=O)O)OC(=O)CCCCCCCCCCCCCCC` (stereo partly drawn) [CL530, (2S,5S,8S,11S,14S,17R)-17-amino-5-(4-(4-((6-amino-2-(butylamino)-8-hydroxy-9H-purin-9-yl)methyl)benzamido)butyl)-2,8,11-tris(4-aminobutyl)-14-(hydroxymethyl) -4,7,10,13,16,24-hexaoxo-21-(palmitoyloxy)-23-oxa-19-thia-3,6,9,12,15-pentaaza nonatriacontan-1-oic acid], the “Conformity (C)/ Non-conformity (NC)” value is on record as “NC (larger sizes were considered to show aggregates or non-conformity)”; the “Mean Diameter (nm)” value was 188,0 nm and 187,6 nm and 213,1 nm; the PDI was 0,332 and 0,351 and 0,315.

Consider `CCCCCCCCCCCCCCCC(=O)OCC(CSC[C@H](N)C(=O)N[C@@H](CO)C(=O)N[C@@H](CCCCN)C(=O)N[C@@H](CCCCNC(=O)c1ccc(Cn2c(O)nc3c(N)nc(NCCCC)nc32)cc1)C(=O)N[C@@H](CCCCN)C(=O)N[C@@H](CCCCN)C(=O)O)OC(=O)CCCCCCCCCCCCCCC` (stereo partly drawn) [CL531, (2S,5S,8S,11S,14S,17R)-17-amino-8-(4-(4-((6-amino-2-(butylamino)-8-hydroxy-9H-purin-9-yl)methyl)benzamido)butyl)-2,5,11-tris(4-aminobutyl)-14-(hydroxymethyl) -4,7,10,13,16,24-hexaoxo-21-(palmitoyloxy)-23-oxa-19-thia-3,6,9,12,15-pentaaza nonatriacontan-1-oic acid], for which the “Conformity (C)/ Non-conformity (NC)” value was “C (ranged between 140 and 200 nm in diameter were considered to show conformity)”; the “Mean Diameter (nm)” value is 145,0 nm and 143,8 nm and 140,1 nm; the PDI was 0,144 and 0,153 and 0,138.

In the case of `CCCCCCCCCCCCCCCC(=O)OCC(CSC[C@H](N)C(=O)N[C@@H](CO)C(=O)N[C@@H](CCCCNC(=O)c1ccc(Cn2c(O)nc3c(N)nc(NCCCC)nc32)cc1)C(=O)N[C@@H](CCCCN)C(=O)N[C@@H](CCCCN)C(=O)N[C@@H](CCCCN)C(=O)O)OC(=O)CCCCCCCCCCCCCCC` (stereo partly drawn) [CL533, (2S,5S,8S,11S,14S,17R)-17-amino-11-(4-(4-((6-amino-2-(butylamino)-8-hydroxy-9H-purin-9-yl)methyl)benzamido)butyl)-2,5,8-tris(4-aminobutyl)-14-(hydroxylmethyl)-4,7,10,13,16,24-hexaoxo-21-(palmitoyloxy)-23-oxa-19-thia-3,6,9,12,15-pentaazanonatria contan-1-oic acid], the “Conformity (C)/ Non-conformity (NC)” value was “C (ranged between 140 and 200 nm in diameter were considered to show conformity)”; the “Mean Diameter (nm)” value is 140,4 nm and 149,8 nm and 141,5 nm; the PDI is 0,195 and 0,198 and 0,185.

On to `CCCCCCCCCCCCCCCC(=O)N[C@@H](CSCC(COC(=O)CCCCCCCCCCCCCCC)OC(=O)CCCCCCCCCCCCCCC)C(=O)N[C@@H](CO)C(=O)N[C@@H](CCCCN)C(=O)N[C@@H](CCCCN)C(=O)N[C@@H](CCCCNC(=O)c1ccc(Cn2c(O)nc3c(N)nc(NCCCC)nc32)cc1)C(=O)N[C@@H](CCCCN)C(=O)O` (stereo partly drawn) [CL535, (2S,5S,8S,11S,14S,17R)-5-(4-(4-((6-amino-2-(butylamino)-8-hydroxy-9H-purin-9-yl)methyl)benzamido)butyl)-2,8,11-tris(4-aminobutyl)-14-(hydroxymethyl)-4,7,10, 13,16,24-hexaoxo-17-palmitamido-21-(palmitoyloxy)-23-oxa-19-thia-3,6,9,12,15-pentaazanonatriacontan-1-oic acid], for which the “Conformity (C)/ Non-conformity (NC)” value was “NC (larger sizes were considered to show aggregates or non-conformity)”; the “Mean Diameter (nm)” value was 229,5 nm and 232,3 nm and 226,8 nm; the PDI is 0,351 and 0,336 and 0,396.

As for `CCCCCCCCCCCCCCCC(=O)N[C@@H](CSCC(COC(=O)CCCCCCCCCCCCCCC)OC(=O)CCCCCCCCCCCCCCC)C(=O)N[C@@H](CO)C(=O)N[C@@H](CCCCN)C(=O)N[C@@H](CCCCNC(=O)c1ccc(Cn2c(O)nc3c(N)nc(NCCCC)nc32)cc1)C(=O)N[C@@H](CCCCN)C(=O)N[C@@H](CCCCN)C(=O)O` (stereo partly drawn) [CL536, (2S,5S,8S,11S,14S,17R)-8-(4-(4-((6-amino-2-(butylamino)-8-hydroxy-9H-purin-9-yl)methyl)benzamido)butyl)-2,5,11-tris(4-aminobutyl)-14-(hydroxymethyl)-4,7,10, 13,16,24-hexaoxo-17-palmitamido-21-(palmitoyloxy)-23-oxa-19-thia-3,6,9,12,15-pentaazanonatriacontan-1-oic acid], the “Conformity (C)/ Non-conformity (NC)” value is “NC (larger sizes were considered to show aggregates or non-conformity)”; the “Mean Diameter (nm)” value is 231,9 nm and 236,1 nm and 225,8 nm; the PDI was 0,465 and 0,583 and 0,65.

As to `CCCCCCCCCCCCCCCC(=O)N[C@@H](CSCC(COC(=O)CCCCCCCCCCCCCCC)OC(=O)CCCCCCCCCCCCCCC)C(=O)N[C@@H](CO)C(=O)N[C@@H](CCCCNC(=O)c1ccc(Cn2c(O)nc3c(N)nc(NCCCC)nc32)cc1)C(=O)N[C@@H](CCCCN)C(=O)N[C@@H](CCCCN)C(=O)N[C@@H](CCCCN)C(=O)O` (stereo partly drawn) [CL537, (2S,5S,8S,11S,14S,17R)-11-(4-(4-((6-amino-2-(butylamino)-8-hydroxy-9H-purin-9-yl)methyl)benzamido)butyl)-2,5,8-tris(4-aminobutyl)-14-(hydroxymethyl)-4,7,10, 13,16,24-hexaoxo-17-palmitamido-21-(palmitoyloxy)-23-oxa-19-thia-3,6,9,12,15-pentaazanonatria contan-1-oic acid], the “Conformity (C)/ Non-conformity (NC)” value was “NC (larger sizes were considered to show aggregates or non-conformity)”; the “Mean Diameter (nm)” value is 198,1 nm and 203,5 nm and 219,3 nm; the PDI is 0,704 and 0,618 and 0,626.
